The values that follow come from patent US20220233563A1, “Methods of Treatments Based Upon Anthracycline Responsiveness” (The Board of Trustees of the Leland Stanford Junior …, priority 2019, published 2022).

The test system of experiment [1] is HCC1954 breast cancer cell line. Kind of experiment: Cell viability after drug treatment of HCC1954 cells with inducible shRNA knockdown of KDM4B. It counts as cell-based. As to conditions: KDM4B knocked down four days, then drug for three days; normalized to DMSO vehicle-only controls; FIG. 26.
Protocol: To functionally evaluate the role of KDM4B expression in anthracycline sensitivity, three inducible shRNA knockdown constructs were used to lower the levels of KDM4B protein in the HCC1954 breast cancer cell line (FIG. 24). […] The expression KDM4B was knocked down for four days, and then the cells were treated with either doxorubicin, etoposide (a non-anthracycline TOP2 inhibitor) or paclitaxel (a taxane commonly used to treat breast cancer that functions via tubulin inhibition) for three days, after which cell viability was measured (FIG. 25). All experiments were normalized to DMSO vehicle-only controls and were performed under both induced and non-induced conditions.
Experiment [2] shares this test system. As to the kind of experiment: Cell viability after drug treatment of HCC1954 cells with inducible shRNA knockdown of KAT6B. It counts as cell-based. The following applies: three inducible shRNA constructs against KAT6B in HCC1954; FIG. 31.
Protocol: A similar experiment was performed by knocking down KAT6B expression to evaluate the role of KAT6B expression in anthracycline sensitivity. Three inducible shRNA knockdown constructs were used to lower the levels of KAT6B protein in the HCC1954 breast cancer cell line.
For experiment [3] the test system is unchanged. As to conditions: unmodified HCC1954, ER-/HER2+, not TOP2A amplified; cited from earlier work.

Regarding `COc1cc([C@@H]2c3cc4c(cc3[C@@H](O[C@@H]3O[C@@H]5CO[C@@H](C)O[C@H]5[C@H](O)[C@H]3O)[C@H]3COC(=O)[C@H]23)OCO4)cc(OC)c1O` [etoposide], the “change in drug sensitivity (cell viability) upon knockdown of KDM4B” value (from here on “change in drug sensitivity … of KDM4B”) in experiment [1] is reported as “induced resistance”. In addition, in experiment [2], the “change in drug sensitivity (cell viability) upon knockdown of KAT6B” value (from here on “change in drug sensitivity … of KAT6B”) was “induced resistance”.
For the compound `COc1cccc2c1C(=O)c1c(O)c3c(c(O)c1C2=O)C[C@@](O)(C(=O)CO)C[C@@H]3O[C@H]1C[C@H](N)[C@H](O)[C@H](C)O1` [doxorubicin], in experiment [3], the “doxorubicin sensitivity of the HCC1954 cell line” value is “doxorubicin-sensitive”. In experiment [1], the “change in drug sensitivity … of KDM4B” value is “induced resistance”. In addition, the “change in drug sensitivity … of KAT6B” value in experiment [2] is listed as “induced resistance”.
Turning to `CC(=O)O[C@H]1C(=O)[C@@]2(C)[C@H]([C@H](OC(=O)c3ccccc3)[C@]3(O)C[C@H](OC(=O)[C@H](O)[C@@H](NC(=O)c4ccccc4)c4ccccc4)C(C)=C1C3(C)C)[C@]1(OC(C)=O)CO[C@@H]1C[C@@H]2O` [paclitaxel], the “change in drug sensitivity … of KDM4B” value in experiment [1] is listed as “remained sensitive”. Also, in experiment [2], the “change in drug sensitivity … of KAT6B” value is “remained sensitive”.
